In brackets after ≈: the same amount, converted by molar mass. Where a name gives a salt, the structure may show the parent alone.

These results are taken from patent US8216610B2, “Oral paracetamol formulations” (Imaginot Pty Ltd., priority 2004, dated 2012).

The conditions of data set [1]: cited from earlier work.
Data set [2] is described as follows: Solubility in water. The format is physicochemical. To be noted: on a weight for weight basis; doses of the combination tablet.
The conditions of data set [3]: cited from earlier work. This is another data set of the same source.

As to `CC(=O)Nc1ccc(O)cc1` [paracetamol, N-acetyl-p-aminophenol], the “paracetamol concentration effective for antipyresis” value in data set [1] (Rumack et al 1978) is 10 to 20 µg/mL. For the same molecule, the “range of paracetamol plasma concentrations for effective analgesia” value in data set [1] (humans, Prescott 1974) is 5 to 20 µg/mL. Also, the “volume needed for total dissolution of the dose” value in data set [2] is recorded as “around 27 mL”. Besides, in data set [3], the “dependence of solubility on pH” value was “independent of the pH” and the solubility in water was roughly 14 mg/mL (≈ 92.6 mM).

For the molecule `COc1cccc(C2(O)CCCCC2CN(C)C)c1` (centres unmarked) [tramadol hydrochloride], in data set [2], the “volume needed for total dissolution of the dose” value is “around 1 mL”. Moreover, in data set [3], the “dependence of solubility on pH” value is reported as “reduced as the pH increases” and the solubility in water result is “around 30 mg/mL”.
